Results as given in ChEMBL document CHEMBL3124829, “Discovery of SCH 900188: A Potent Hepatitis C Virus NS5B Polymerase Inhibitor Prodrug As a Development Candidate” (ACS Med Chem Lett, 2014).
Calls of active or inactive are those of the source. The calls are words filed in the database; no cut-off is given here.

Assays:
[1] = Inhibition of HCV genotype 1b C-terminal polyhistidine-tagged NS5B Cdelta21 RdRp expressed in Escherichia coli using DCoH75 as template assessed as incorporation of [33P]-CTP in polynucleotide sequence after 2 hrs by scintillation counting analysis; parameters: species or system Hepatitis C virus subtype 1b
Hepatitis C virus = experiment: Antiviral activity against HCV infected in human hepatoma cells assessed as inhibition of viral RNA replication after 3 days by real time PCR analysis; format: functional, organism-based, Hepacivirus hominis; details: 72 h
[2] = AUC (0 to 6 hrs) in rat at 10 mg/kg, po; format: ADME, organism-based; parameters: time < 6 hr, dose 10 mg/kg, route oral; details: plasma
Rattus norvegicus [3] = experiment: AUC (0 to 6 hrs) in rat assessed as 4-Fluoro-6-((7-fluoro-4-oxo-3,4-dihydroquinazolin-6-yl)methyl)-8-(2-oxo-1,2-dihydropyridin-3-yl)-6H-furo[2,3-e]indole-7-carboxylic acid at 10 mg/kg, po; format: ADME, organism-based, Plasma; parameters: time < 6 hr, dose 10 mg/kg, route oral; details: in vivo
[4] = system: RNA-directed RNA polymerase (Hepacivirus hominis), O39930 [C316Y]; experiment: Inhibition of HCV NS5B RdRp C316Y mutant active site
[5] = system: RNA-directed RNA polymerase (Hepacivirus hominis), O39930 [C316Y]; experiment: Inhibition of HCV NS5B RdRp C316Y mutant palm allosteric site
[6] = Cmax in rat; format: ADME, organism-based; details: in vivo
[7] = Clearance in iv dosed rat; format: ADME, organism-based; details: in vivo
[8] = AUC (0 to 24 hrs) in rat at 10 mg/kg, po; format: ADME, organism-based; parameters: time < 24 hr, dose 10 mg/kg, route oral; details: plasma
[9] = AUC (0 to 24 hrs) in monkey at 3 mg/kg, po; format: ADME, organism-based, Macaca mulatta; parameters: time < 24 hr, dose 3 mg/kg, route oral; details: rhesus monkey, plasma
Salmonella typhimurium = experiment: Mutagenic activity in Salmonella typhimurium by mini Ames test; format: toxicity, organism-based; details: salmonella enterica subsp. enterica serovar typhimurium
[10] = Mutagenic activity in micronucleus (unknown origin); format: ADME
[11] = Inhibition of HCV genotype 4a C-terminal polyhistidine-tagged NS5B Cdelta21 RdRp expressed in Escherichia coli using DCoH75 as template assessed as incorporation of [33P]-CTP in polynucleotide sequence after 2 hrs by scintillation counting analysis; parameters: species or system Hepatitis C virus subtype 4a
[12] = Clearance in iv dosed monkey; format: ADME, organism-based, Macaca mulatta; details: rhesus monkey, in vivo
[13] = Inhibition of HCV genotype 3a C-terminal polyhistidine-tagged NS5B Cdelta21 RdRp expressed in Escherichia coli using DCoH75 as template assessed as incorporation of [33P]-CTP in polynucleotide sequence after 2 hrs by scintillation counting analysis; parameters: species or system Hepatitis C virus subtype 3a
[14] = system: RNA-directed RNA polymerase (Hepacivirus hominis), O39930 [M414T]; experiment: Inhibition of HCV NS5B RdRp M414T mutant active site
[15] = Oral bioavailability in rat; format: ADME, organism-based; details: in vivo
[16] = Cmax in monkey; format: ADME, organism-based, Macaca mulatta; details: rhesus monkey, in vivo
[17] = Clearance in iv dosed dog; format: ADME, organism-based, Canis lupus familiaris; details: in vivo
[18] = Inhibition of HCV genotype 2a C-terminal polyhistidine-tagged NS5B Cdelta21 RdRp expressed in Escherichia coli using DCoH75 as template assessed as incorporation of [33P]-CTP in polynucleotide sequence after 2 hrs by scintillation counting analysis; parameters: species or system Hepatitis C virus subtype 2a
[19] = system: RNA-directed RNA polymerase (Hepacivirus hominis), O39930 [M414T]; experiment: Inhibition of HCV NS5B RdRp M414T mutant palm allosteric site
[20] = AUC (0 to 24 hrs) in dog at 3 mg/kg, po; format: ADME, organism-based, Canis lupus familiaris; parameters: time < 24 hr, dose 3 mg/kg, route oral; details: plasma
[21] = Half life in monkey at 1 mg/kg, iv; format: ADME, organism-based, Macaca mulatta; parameters: dose 1 mg/kg, route intravenous; details: rhesus monkey, in vivo
[22] = Oral bioavailability in dog; format: ADME, organism-based, Canis lupus familiaris; details: in vivo
[23] = Inhibition of HCV genotype 1a C-terminal polyhistidine-tagged NS5B Cdelta21 RdRp expressed in Escherichia coli using DCoH75 as template assessed as incorporation of [33P]-CTP in polynucleotide sequence after 2 hrs by scintillation counting analysis; parameters: species or system Hepatitis C virus subtype 1a
[24] = Half life in dog at 1 mg/kg, iv; format: ADME, organism-based, Canis lupus familiaris; parameters: dose 1 mg/kg, route intravenous; details: in vivo
[25] = Half life in rat at 3 mg/kg, iv; format: ADME, organism-based; parameters: dose 3 mg/kg, route intravenous; details: in vivo
[26] = Oral bioavailability in monkey; format: ADME, organism-based, Macaca mulatta; details: rhesus monkey, in vivo
[27] = system: RNA-directed RNA polymerase (Hepacivirus hominis), O39930 [G554D]; experiment: Inhibition of HCV NS5B RdRp G554D mutant palm allosteric site
[28] = Cmax in dog; format: ADME, organism-based, Canis lupus familiaris; details: in vivo
[29] = system: RNA-directed RNA polymerase (Hepacivirus hominis), O39930 [G554D]; experiment: Inhibition of HCV NS5B RdRp G554D mutant active site
Rattus norvegicus [30] = species: Rattus norvegicus; experiment: Ratio of drug level from liver to plasma in rat assessed as 4-Fluoro-6-((7-fluoro-4-oxo-3,4-dihydroquinazolin-6-yl)methyl)-8-(2-oxo-1,2-dihydropyridin-3-yl)-6H-furo[2,3-e]indole-7-carboxylic acid after 6 hrs; details: other tissue

RNA-directed RNA polymerase (Hepacivirus hominis), O39930 [C316Y], sequence (O39930 entry or part of it C316Y): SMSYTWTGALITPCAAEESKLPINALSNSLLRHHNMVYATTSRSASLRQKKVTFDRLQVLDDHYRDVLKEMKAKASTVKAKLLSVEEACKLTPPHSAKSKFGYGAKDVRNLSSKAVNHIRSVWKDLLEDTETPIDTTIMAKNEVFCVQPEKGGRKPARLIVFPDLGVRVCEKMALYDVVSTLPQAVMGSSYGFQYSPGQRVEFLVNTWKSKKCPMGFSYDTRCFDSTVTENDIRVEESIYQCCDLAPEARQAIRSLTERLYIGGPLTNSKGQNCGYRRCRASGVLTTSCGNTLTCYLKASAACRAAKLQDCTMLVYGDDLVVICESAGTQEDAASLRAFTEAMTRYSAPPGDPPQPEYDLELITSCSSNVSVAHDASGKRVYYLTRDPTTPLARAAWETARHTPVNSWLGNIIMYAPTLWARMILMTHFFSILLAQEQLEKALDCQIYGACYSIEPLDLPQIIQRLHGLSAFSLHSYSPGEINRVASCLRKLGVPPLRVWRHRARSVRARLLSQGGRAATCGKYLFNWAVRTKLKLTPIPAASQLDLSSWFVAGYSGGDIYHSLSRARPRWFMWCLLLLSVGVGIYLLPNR
RNA-directed RNA polymerase (Hepacivirus hominis), O39930 [M414T], sequence (O39930 entry or part of it M414T): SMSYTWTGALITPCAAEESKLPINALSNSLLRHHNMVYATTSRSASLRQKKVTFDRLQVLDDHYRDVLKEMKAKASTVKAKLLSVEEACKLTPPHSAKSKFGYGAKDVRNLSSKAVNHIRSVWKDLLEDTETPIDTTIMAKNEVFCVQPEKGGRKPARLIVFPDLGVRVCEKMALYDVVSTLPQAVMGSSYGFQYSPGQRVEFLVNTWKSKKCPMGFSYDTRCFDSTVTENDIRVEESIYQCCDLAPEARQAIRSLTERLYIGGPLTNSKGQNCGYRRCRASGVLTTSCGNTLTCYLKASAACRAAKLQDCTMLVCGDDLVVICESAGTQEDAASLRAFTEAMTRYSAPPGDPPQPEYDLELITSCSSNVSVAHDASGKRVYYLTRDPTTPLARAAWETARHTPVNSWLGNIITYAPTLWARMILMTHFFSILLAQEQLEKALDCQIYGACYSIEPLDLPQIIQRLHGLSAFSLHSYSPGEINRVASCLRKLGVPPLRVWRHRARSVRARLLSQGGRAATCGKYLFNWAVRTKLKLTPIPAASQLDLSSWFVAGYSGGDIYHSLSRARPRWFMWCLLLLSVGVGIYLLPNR
RNA-directed RNA polymerase (Hepacivirus hominis), O39930 [G554D], sequence (O39930 entry or part of it G554D): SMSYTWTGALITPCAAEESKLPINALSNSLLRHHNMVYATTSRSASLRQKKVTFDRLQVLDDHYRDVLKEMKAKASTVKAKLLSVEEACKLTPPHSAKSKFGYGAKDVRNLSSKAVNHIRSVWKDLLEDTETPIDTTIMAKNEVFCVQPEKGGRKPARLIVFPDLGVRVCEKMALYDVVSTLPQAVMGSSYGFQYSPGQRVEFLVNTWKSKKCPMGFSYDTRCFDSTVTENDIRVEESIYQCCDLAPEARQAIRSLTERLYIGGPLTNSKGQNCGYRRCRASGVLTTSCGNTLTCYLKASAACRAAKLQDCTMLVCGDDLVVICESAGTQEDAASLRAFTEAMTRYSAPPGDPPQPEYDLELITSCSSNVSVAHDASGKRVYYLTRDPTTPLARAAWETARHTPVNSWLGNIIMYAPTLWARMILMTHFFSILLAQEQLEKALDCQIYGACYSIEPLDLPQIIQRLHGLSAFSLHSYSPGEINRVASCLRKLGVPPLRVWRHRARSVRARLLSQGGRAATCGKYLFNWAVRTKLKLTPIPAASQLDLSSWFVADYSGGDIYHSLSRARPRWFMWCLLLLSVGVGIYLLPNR

CCc1ccc2c(c1)c(-c1ccc[nH]c1=O)c(C(=O)NS(=O)(=O)C1CC1)n2Cc1cc(C(N)=O)ccc1F
IC50 [1]: 12 nM | EC50 (Hepatitis C virus): 30 nM

CCc1ccc2c(c1)c(-c1ccc[nH]c1=O)c(C(=O)NS(=O)(=O)C1CC1)n2Cc1cc(C#N)ccc1F
IC50 [1]: 7 nM | EC50 (Hepatitis C virus): 80 nM

O=C(O)c1c(-c2ccc[nH]c2=O)c2c3occc3c(F)cc2n1Cc1cc2[nH]c(=O)[nH]c2cc1F
IC50 [1]: 7 nM | AUC(0-t) at 6 h [2]: 4 µM·h | EC50 (Hepatitis C virus): 10 nM

CN(C)CCCCOC(=O)c1c(-c2ccc[nH]c2=O)c2c3occc3c(F)cc2n1Cc1cc2c(=O)[nH]cnc2cc1F
IC50 [1]: 75 nM | AUC (Rattus norvegicus [3]): 0.79 µM·h | EC50 (Hepatitis C virus): 14 nM

Cn1cnc2cc(F)c(Cn3c(C(=O)O)c(-c4ccc[nH]c4=O)c4c5occc5c(F)cc43)cc2c1=O
IC50 [1]: 3 nM | AUC(0-t) at 6 h [2]: 0.17 µM·h | EC50 (Hepatitis C virus): 250 nM

O=C(O)c1c(-c2ccc[nH]c2=O)c2c3occc3c(F)cc2n1Cc1cc2[nH]c(=O)oc2cc1F
IC50 [1]: 2000 nM | EC50 (Hepatitis C virus): 2000 nM

NC(=O)c1ccc(F)c(Cn2c(C(=O)NS(=O)(=O)C3CC3)c(-c3ccc[nH]c3=O)c3cc(C(F)(F)F)c(F)cc32)c1
IC50 [1]: 8 nM | EC50 (Hepatitis C virus): 150 nM

CCc1ccc2c(c1)c(-c1ccc[nH]c1=O)c(C(=O)NS(=O)(=O)C1CC1)n2Cc1cc(O)ccc1F
IC50 [1]: 5 nM | EC50 (Hepatitis C virus): 100 nM

Cc1cc2c(-c3ccc[nH]c3=O)c(C(=O)NS(=O)(=O)C3CC3)n(Cc3cc(C(N)=O)ccc3F)c2cc1F
IC50 [1]: 4 nM | EC50 (Hepatitis C virus): 50 nM

CCc1ccc2c(c1)c(-c1ccc[nH]c1=O)c(C(=O)NS(=O)(=O)C1CC1)n2Cc1cc(S(C)(=O)=O)ccc1F
IC50 [1]: 8 nM | EC50 (Hepatitis C virus): 80 nM

O=C(O)c1ccc(F)c(Cn2c(C(=O)O)c(-c3ccc[nH]c3=O)c3c4occc4c(F)cc32)c1
IC50 [1]: 5 nM | EC50 (Hepatitis C virus): 700 nM

Cn1c(=O)[nH]c(=O)c2cc(Cn3c(C(=O)O)c(-c4ccc[nH]c4=O)c4c5occc5c(F)cc43)c(F)cc21
IC50 [1]: 6 nM | EC50 (Hepatitis C virus): 300 nM

CC(=O)c1ccc(F)c(Cn2c(C(=O)O)c(-c3ccc[nH]c3=O)c3c4occc4c(F)cc32)c1
IC50 [1]: 20 nM | AUC(0-t) at 6 h [2]: 8.8 µM·h | EC50 (Hepatitis C virus): 70 nM

NC(=O)c1ccc(F)c(Cn2c(C(=O)NS(=O)(=O)C3CC3)c(-c3ccc[nH]c3=O)c3c4occc4c(F)cc32)c1
IC50 [1]: 5 nM | AUC(0-t) at 6 h [2]: 0.21 µM·h | EC50 (Hepatitis C virus): 10 nM

NC(=O)c1ccc(F)c(Cn2c(C(=O)O)c(-c3ccc[nH]c3=O)c3c4occc4c(F)cc32)c1
IC50 [1]: 4 nM

NC(=O)c1ccc(F)c(Cn2c(C(=O)NS(=O)(=O)C3CC3)c(-c3ccc[nH]c3=O)c3cc(C(F)(F)F)ccc32)c1
IC50 [1]: 6 nM | EC50 (Hepatitis C virus): 170 nM

CCc1cc2c(-c3ccc[nH]c3=O)c(C(=O)NS(=O)(=O)C3CC3)n(Cc3cc(C(N)=O)ccc3F)c2cc1F
IC50 [1]: 5 nM | EC50 (Hepatitis C virus): 60 nM

CCc1ccc2c(c1)c(-c1ccc[nH]c1=O)c(C(=O)NS(=O)(=O)C1CC1)n2Cc1cc(F)ccc1F
IC50 [1]: 3 nM | EC50 (Hepatitis C virus): 40 nM

Cc1ccc2c(c1)c(-c1ccc[nH]c1=O)c(C(=O)NS(=O)(=O)C1CC1)n2Cc1cc(C(N)=O)ccc1F
IC50 [1]: 4 nM

CCOC(=O)c1c(-c2ccc[nH]c2=O)c2c3occc3c(F)cc2n1Cc1cc2c(=O)[nH]cnc2cc1F
IC50 [1]: 9 nM | AUC (Rattus norvegicus [3]): 0.22 µM·h | EC50 (Hepatitis C virus): 22 nM

Cc1nc2cc(F)c(Cn3c(C(=O)O)c(-c4ccc[nH]c4=O)c4c5occc5c(F)cc43)cc2c(=O)[nH]1
IC50 [1]: 4 nM | AUC(0-t) at 6 h [2]: 0.85 µM·h | EC50 (Hepatitis C virus): 20 nM

O=C(O)c1c(-c2ccc[nH]c2=O)c2c3occc3c(F)cc2n1Cc1cc2c(=O)[nH]c(=O)[nH]c2cc1F
IC50 [1]: 4 nM | AUC(0-t) at 6 h [2]: 8.3 µM·h | EC50 (Hepatitis C virus): 6 nM

CCc1ccc2c(c1)c(-c1ccc[nH]c1=O)c(C(=O)NS(=O)(=O)C1CC1)n2Cc1cc(S(N)(=O)=O)ccc1F
IC50 [1]: 5 nM | EC50 (Hepatitis C virus): 80 nM

CCOC(=O)c1c(-c2ccc[nH]c2=O)c2c3occc3c(F)cc2n1Cc1cc2c(=O)n(COC(=O)C(C)(C)C)cnc2cc1F
IC50 [1]: 400 nM | EC50 (Hepatitis C virus): 69 nM

O=C(O)c1c(-c2ccc[nH]c2=O)c2c3occc3c(F)cc2n1Cc1cc2c(=O)[nH]cnc2cc1F
inhibition [4]: Active | inhibition [5]: inactive | Cmax [6]: 1400 nM | clearance [7]: 0.2 mL/min/kg | AUC(0-t) at 24 h [8]: 10 µM·h | IC50 [1]: 5 nM | AUC(0-t) at 24 h [9]: 8 µM·h | Activity (Salmonella typhimurium): Non-toxic | Activity [10]: Non-toxic | IC50 [11]: > 5000 nM | clearance [12]: 0.6 mL/min/kg | IC50 [13]: > 5000 nM | inhibition [14]: Active | bioavailability [15]: 0.7% | Cmax [16]: 800 nM | clearance [17]: 11 mL/min/kg | IC50 [18]: > 5000 nM | inhibition [19]: inactive | AUC(0-t) at 24 h [20]: 0.4 µM·h | half-life [21]: 8.9 h | bioavailability [22]: 4% | IC50 [23]: 7 nM | half-life [24]: 3.2 h | half-life [25]: 9.4 h | bioavailability [26]: 5% | inhibition [27]: inactive | AUC(0-t) at 6 h [2]: 4.3 µM·h | Cmax [28]: 100 nM | EC50 (Hepatitis C virus): 6 nM | inhibition [29]: Active

CC(C)(C)C(=O)OCn1cnc2cc(F)c(Cn3c(C(=O)O)c(-c4ccc[nH]c4=O)c4c5occc5c(F)cc43)cc2c1=O
IC50 [1]: 13 nM | EC50 (Hepatitis C virus): 10 nM

CC(C)(C)C(=O)OCn1cccc(-c2c(C(=O)O)n(Cc3cc4c(=O)[nH]cnc4cc3F)c3cc(F)c4ccoc4c23)c1=O
IC50 [1]: 51 nM | EC50 (Hepatitis C virus): 67 nM

Nc1nc2cc(F)c(Cn3c(C(=O)O)c(-c4ccc[nH]c4=O)c4c5occc5c(F)cc43)cc2c(=O)[nH]1
IC50 [1]: 7 nM | AUC(0-t) at 6 h [2]: 0.02 µM·h | EC50 (Hepatitis C virus): 7 nM

CN(C)CCCOC(=O)c1c(-c2ccc[nH]c2=O)c2c3occc3c(F)cc2n1Cc1cc2c(=O)[nH]cnc2cc1F
IC50 [1]: 110 nM | AUC (Rattus norvegicus [3]): 2.3 µM·h | Ratio (Rattus norvegicus [30]): 0.4 | EC50 (Hepatitis C virus): 11 nM
